Laboratory results as given in patent US20050009840A1 (SUGEN, INC., priority 2003, published 2005).

Target: T1, HGFR (Homo sapiens, UniProt P08581)
T1 construct: purchased Upstate 14-526
Assay: HGFR continuous-coupled spectrophotometric assay
Assay type: biochemical
Details: at 1 pM; Table 7, library procedure 42; read-out: % Inhibition (percent c-MET inhibition)

T1 sequence (P08581 974-1390 limits assumed): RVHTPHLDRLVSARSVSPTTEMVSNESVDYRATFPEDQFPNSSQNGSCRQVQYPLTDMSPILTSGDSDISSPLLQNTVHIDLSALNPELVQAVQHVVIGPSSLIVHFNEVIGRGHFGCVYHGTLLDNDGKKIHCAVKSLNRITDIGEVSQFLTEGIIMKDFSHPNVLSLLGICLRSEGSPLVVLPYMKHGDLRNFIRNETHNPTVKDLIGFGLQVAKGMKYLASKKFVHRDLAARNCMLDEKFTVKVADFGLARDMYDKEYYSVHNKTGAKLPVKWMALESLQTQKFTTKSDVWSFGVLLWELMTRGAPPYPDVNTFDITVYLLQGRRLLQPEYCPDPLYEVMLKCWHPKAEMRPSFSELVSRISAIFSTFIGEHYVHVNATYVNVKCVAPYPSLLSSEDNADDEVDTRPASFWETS

| inhibition at 1 pM | SMILES |
| --- | --- |
| 24% | Nc1ncc(-c2ccc(C(=O)N3CCC(N4CCCC4)CC3)cc2)cc1OCc1cc(F)ccc1F |
| 8% | Nc1ncc(-c2ccc(C(=O)N3CCC(N4CCCC4)CC3)cc2)cc1OCc1ncc(C(F)(F)F)cc1Cl |
| 37% | Nc1ncc(-c2ccc(C(=O)N3CCC(N4CCCC4)CC3)cc2)cc1OCc1csc2ccc(Cl)cc12 |
| 36% | CC(C)(C)c1ccc(-c2noc(COc3cc(-c4ccc(C(=O)N5CCC(N6CCCC6)CC5)cc4)cnc3N)n2)cc1 |
| 6% | Cc1noc(C)c1-c1nc(COc2cc(-c3ccc(C(=O)N4CCC(N5CCCC5)CC4)cc3)cnc2N)no1 |
| 8% | COc1ccccc1-c1nc(COc2cc(-c3ccc(C(=O)N4CCC(N5CCCC5)CC4)cc3)cnc2N)no1 |
| 9% | Nc1ncc(-c2ccc(C(=O)N3CCC(N4CCCC4)CC3)cc2)cc1OCc1csc(-c2ccc(Cl)cc2)n1 |
| 6% | Cc1nc(COc2cc(-c3ccc(C(=O)N4CCC(N5CCCC5)CC4)cc3)cnc2N)cs1 |
| 27% | Nc1ncc(-c2ccc(C(=O)N3CCC(N4CCCC4)CC3)cc2)cc1OCc1noc(-c2cccc(C(F)(F)F)c2)n1 |
| 14% | CCOC(=O)CCNC(=O)c1cccc(COc2cc(-c3ccc(C(=O)N4CCC(N5CCCC5)CC4)cc3)cnc2N)c1 |
| 15% | COC(=O)c1ccc(COc2cc(-c3ccc(C(=O)N4CCC(N5CCCC5)CC4)cc3)cnc2N)c(OC)c1 |
| 15% | Nc1ncc(-c2ccc(C(=O)N3CCC(N4CCCC4)CC3)cc2)cc1OCc1ccc(S(=O)(=O)Nc2ccc(F)cc2)cc1 |
| 17% | Nc1ncc(-c2ccc(C(=O)N3CCC(N4CCCC4)CC3)cc2)cc1OCc1ccc(-c2ccnc(Br)n2)cc1 |
| 12% | Nc1ncc(-c2ccc(C(=O)N3CCC(N4CCCC4)CC3)cc2)cc1OCc1cscn1 |
| 15% | Nc1ncc(-c2ccc(C(=O)N3CCC(N4CCCC4)CC3)cc2)cc1OCc1cccc(CO)n1 |
| 13% | Nc1ncc(-c2ccc(C(=O)N3CCC(N4CCCC4)CC3)cc2)cc1OCc1cccc(-c2ccnc(Br)n2)c1 |
| 13% | Nc1ncc(-c2ccc(C(=O)N3CCC(N4CCCC4)CC3)cc2)cc1OCc1ccc(C(F)(F)F)nc1 |
| 33% | Nc1ncc(-c2ccc(C(=O)N3CCC(N4CCCC4)CC3)cc2)cc1OCc1ccc(-c2cnc(Br)nc2)cc1 |
| 11% | Nc1ncc(-c2ccc(C(=O)N3CCC(N4CCCC4)CC3)cc2)cc1OCc1cn2ccccc2n1 |
| 17% | COc1cc(COc2cc(-c3ccc(C(=O)N4CCC(N5CCCC5)CC4)cc3)cnc2N)cc(OC)c1 |
| 15% | CCOC(=O)CCNS(=O)(=O)c1ccc(COc2cc(-c3ccc(C(=O)N4CCC(N5CCCC5)CC4)cc3)cnc2N)cc1 |
| 31% | Nc1ncc(-c2ccc(C(=O)N3CCC(N4CCCC4)CC3)cc2)cc1OCc1ccc(C(=O)c2ccccc2)cc1 |
| 23% | COc1cccc(COc2cc(-c3ccc(C(=O)N4CCC(N5CCCC5)CC4)cc3)cnc2N)c1OC |
| 22% | Cc1cc(-c2onc(C)c2COc2cc(-c3ccc(C(=O)N4CCC(N5CCCC5)CC4)cc3)cnc2N)no1 |
| 12% | Cc1nc2ccc(COc3cc(-c4ccc(C(=O)N5CCC(N6CCCC6)CC5)cc4)cnc3N)cc2c(=O)[nH]1 |
| 14% | Nc1ncc(-c2ccc(C(=O)N3CCC(N4CCCC4)CC3)cc2)cc1OCc1ccc(S(=O)(=O)N2CCOCC2)cc1 |
| 18% | COCOc1ccc(S(=O)(=O)c2ccc(COc3cc(-c4ccc(C(=O)N5CCC(N6CCCC6)CC5)cc4)cnc3N)cc2)cc1 |

| inhibition at 1 pM | SMILES |
| --- | --- |
| 13% | COc1ccc2sc(COc3cc(-c4ccc(C(=O)N5CCC(N6CCCC6)CC5)cc4)cnc3N)cc2c1 |
| 13% | Nc1ncc(-c2ccc(C(=O)N3CCC(N4CCCC4)CC3)cc2)cc1OCc1ccc(S(=O)(=O)c2ccc(F)cc2)cc1 |
| 10% | Cc1nc2scc(COc3cc(-c4ccc(C(=O)N5CCC(N6CCCC6)CC5)cc4)cnc3N)c2c(=O)[nH]1 |
| 9% | Nc1ncc(-c2ccc(C(=O)N3CCC(N4CCCC4)CC3)cc2)cc1OCc1cncc2ccccc12 |
| 10% | Cn1c(COc2cc(-c3ccc(C(=O)N4CCC(N5CCCC5)CC4)cc3)cnc2N)nc2ccccc21 |
| 9% | Nc1ncc(-c2ccc(C(=O)N3CCC(N4CCCC4)CC3)cc2)cc1OCc1nc(-c2ccccn2)no1 |
| 50% | Nc1ncc(-c2ccc(C(=O)N3CCC(N4CCCC4)CC3)cc2)cc1OCc1c(F)ccc(F)c1Cl |
| 39% | Cc1ccc(COc2cc(-c3ccc(C(=O)N4CCC(N5CCCC5)CC4)cc3)cnc2N)c(F)c1F |
| 51% | Cc1ccc(F)c(COc2cc(-c3ccc(C(=O)N4CCC(N5CCCC5)CC4)cc3)cnc2N)c1F |
| 27% | Cc1cc(COc2cc(-c3ccc(C(=O)N4CCC(N5CCCC5)CC4)cc3)cnc2N)ccc1F |
| 29% | Cc1ccc(F)cc1COc1cc(-c2ccc(C(=O)N3CCC(N4CCCC4)CC3)cc2)cnc1N |
| 24% | Nc1ncc(-c2ccc(C(=O)N3CCC(N4CCCC4)CC3)cc2)cc1OCc1cccc(Br)c1 |
| 15% | Nc1ncc(-c2ccc(C(=O)N3CCC(N4CCCC4)CC3)cc2)cc1OCc1nc(N)c2ccccc2n1 |
| 17% | Nc1ncc(-c2ccc(C(=O)N3CCC(N4CCCC4)CC3)cc2)cc1OCc1cccnc1 |
| 16% | Nc1ncc(-c2ccc(C(=O)N3CCC(N4CCCC4)CC3)cc2)cc1OCc1ccccn1 |
| 20% | COc1c(C)cnc(COc2cc(-c3ccc(C(=O)N4CCC(N5CCCC5)CC4)cc3)cnc2N)c1C |
| 19% | Cc1onc(-c2ccccc2)c1COc1cc(-c2ccc(C(=O)N3CCC(N4CCCC4)CC3)cc2)cnc1N |
| 16% | Nc1ncc(-c2ccc(C(=O)N3CCC(N4CCCC4)CC3)cc2)cc1OCc1cn2cccnc2n1 |
| 18% | Cc1cc(C)n2nc(COc3cc(-c4ccc(C(=O)N5CCC(N6CCCC6)CC5)cc4)cnc3N)nc2n1 |
| 22% | Nc1ncc(-c2ccc(C(=O)N3CCC(N4CCCC4)CC3)cc2)cc1OCc1cccc2cccnc12 |
| 63% | Cn1nc(-c2ccccc2)c(COc2cc(-c3ccc(C(=O)N4CCC(N5CCCC5)CC4)cc3)cnc2N)c1Cl |
| 17% | Nc1ncc(-c2ccc(C(=O)N3CCC(N4CCCC4)CC3)cc2)cc1OCc1nc2ccccc2s1 |
| 18% | Cc1ccc(-c2nnc(COc3cc(-c4ccc(C(=O)N5CCC(N6CCCC6)CC5)cc4)cnc3N)o2)cc1 |
| 23% | Nc1ncc(-c2ccc(C(=O)N3CCC(N4CCCC4)CC3)cc2)cc1OCc1cc(-c2ccccc2)no1 |
| 16% | Cc1cc(COc2cc(-c3ccc(C(=O)N4CCC(N5CCCC5)CC4)cc3)cnc2N)no1 |
| 18% | COC(=O)Nc1cc(COc2cc(-c3ccc(C(=O)N4CCC(N5CCCC5)CC4)cc3)cnc2N)on1 |
| 14% | Cn1ccnc1COc1cc(-c2ccc(C(=O)N3CCC(N4CCCC4)CC3)cc2)cnc1N |

| inhibition at 1 pM | SMILES |
| --- | --- |
| 14% | Cc1nc(COc2cc(-c3ccc(C(=O)N4CCC(N5CCCC5)CC4)cc3)cnc2N)n(C)n1 |
| 34% | Nc1ncc(-c2ccc(C(=O)N3CCC(N4CCCC4)CC3)cc2)cc1OCc1nc2cc(C(F)(F)F)ccc2s1 |
| 24% | Nc1ncc(-c2ccc(C(=O)N3CCC(N4CCCC4)CC3)cc2)cc1OCc1ccc2ccc(Cl)cc2n1 |
| 19% | Cc1oc(-c2ccccc2)nc1COc1cc(-c2ccc(C(=O)N3CCC(N4CCCC4)CC3)cc2)cnc1N |
| 18% | Cc1cc(=O)n2nc(COc3cc(-c4ccc(C(=O)N5CCC(N6CCCC6)CC5)cc4)cnc3N)nc2[nH]1 |
| 19% | Nc1ncc(-c2ccc(C(=O)N3CCC(N4CCCC4)CC3)cc2)cc1OCc1nnnn1Cc1ccccc1 |
| 16% | Nc1ncc(-c2ccc(C(=O)N3CCC(N4CCCC4)CC3)cc2)cc1OCc1nc2ncc(Cl)cc2[nH]1 |
| 17% | Nc1ncc(-c2ccc(C(=O)N3CCC(N4CCCC4)CC3)cc2)cc1OCc1nc2cccnc2[nH]1 |
| 17% | Nc1ncc(-c2ccc(C(=O)N3CCC(N4CCCC4)CC3)cc2)cc1OCc1nc2ncccc2o1 |
| 20% | COc1cc(OC)nc(COc2cc(-c3ccc(C(=O)N4CCC(N5CCCC5)CC4)cc3)cnc2N)n1 |
| 12% | Cc1[nH]cnc1COc1cc(-c2ccc(C(=O)N3CCC(N4CCCC4)CC3)cc2)cnc1N |
| 16% | CCCCc1nc(COc2cc(-c3ccc(C(=O)N4CCC(N5CCCC5)CC4)cc3)cnc2N)c[nH]1 |
| 23% | COc1ccnc(COc2cc(-c3ccc(C(=O)N4CCC(N5CCCC5)CC4)cc3)cnc2N)c1OC |
| 16% | Nc1ncc(-c2ccc(C(=O)N3CCC(N4CCCC4)CC3)cc2)cc1OCc1cn2cc(Cl)ccc2n1 |
| 16% | Cc1cccnc1COc1cc(-c2ccc(C(=O)N3CCC(N4CCCC4)CC3)cc2)cnc1N |
| 16% | Cc1ccn2cc(COc3cc(-c4ccc(C(=O)N5CCC(N6CCCC6)CC5)cc4)cnc3N)nc2c1 |
| 17% | Cc1oc(-c2ccc(F)cc2)nc1COc1cc(-c2ccc(C(=O)N3CCC(N4CCCC4)CC3)cc2)cnc1N |
| 17% | Cc1cccc(COc2cc(-c3ccc(C(=O)N4CCC(N5CCCC5)CC4)cc3)cnc2N)n1 |
| 16% | Cc1cc(C)nc(COc2cc(-c3ccc(C(=O)N4CCC(N5CCCC5)CC4)cc3)cnc2N)n1 |
| 19% | COc1ccccc1-c1nc(COc2cc(-c3ccc(C(=O)N4CCC(N5CCCC5)CC4)cc3)cnc2N)c(C)o1 |
| 15% | CCc1ccc(COc2cc(-c3ccc(C(=O)N4CCC(N5CCCC5)CC4)cc3)cnc2N)nc1 |
| 8% | Cc1oc(-c2cccc(F)c2)nc1COc1cc(-c2ccc(C(=O)N3CCC(N4CCCC4)CC3)cc2)cnc1N |
| 14% | Cn1nc(C(F)(F)F)c2cc(COc3cc(-c4ccc(C(=O)N5CCC(N6CCCC6)CC5)cc4)cnc3N)sc21 |
| 23% | Nc1ncc(-c2ccc(C(=O)N3CCC(N4CCCC4)CC3)cc2)cc1OCc1cc(-c2ccc(Cl)cc2)no1 |
| 7% | Cn1nc(CC2CC2)nc1COc1cc(-c2ccc(C(=O)N3CCC(N4CCCC4)CC3)cc2)cnc1N |
| 9% | Nc1ncc(-c2ccc(C(=O)N3CCC(N4CCCC4)CC3)cc2)cc1OCc1cnc(N)c(N)n1 |
